Consider 15 compounds from patent EP1710301A1, “L-gulonolactone dehydrogenase of Mycobacterium tuberculosis” (priority 2005, dated 2006).

The subject of data set [1] is O=C1O[C@H]([C@@H](O)CO)[C@H](O)[C@@H]1O. As to the kind of experiment: purified protein, by the assay type.
For data set [2], the target named is recombinant GST-tagged L-gulono-1,4-lactone dehydrogenase of Mycobacterium tuberculosis (Mycobacterium tuberculosis, UniProt P9WIT3). The conditions noted are these: for Enzyme specific activity: substrate 50 mM.
Chain of recombinant GST-tagged L-gulono-1,4-lactone dehydrogenase of Mycobacterium tuberculosis (P9WIT3 whole entry): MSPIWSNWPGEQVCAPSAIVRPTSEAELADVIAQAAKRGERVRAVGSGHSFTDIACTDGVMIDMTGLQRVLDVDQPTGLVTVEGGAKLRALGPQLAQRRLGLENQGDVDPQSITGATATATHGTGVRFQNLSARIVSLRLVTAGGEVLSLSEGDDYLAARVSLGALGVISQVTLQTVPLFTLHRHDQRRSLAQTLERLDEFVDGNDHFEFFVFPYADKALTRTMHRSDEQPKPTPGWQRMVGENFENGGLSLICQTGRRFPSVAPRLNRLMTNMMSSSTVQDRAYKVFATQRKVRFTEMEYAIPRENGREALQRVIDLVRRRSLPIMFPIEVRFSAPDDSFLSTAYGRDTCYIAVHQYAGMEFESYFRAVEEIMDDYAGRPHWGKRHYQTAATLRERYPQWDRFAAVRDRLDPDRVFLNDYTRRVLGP
The target of data set [3] is plant L-galactono-1,4-lactone dehydrogenase (Brassica oleracea, UniProt O47881). The conditions noted are these: read-out: Km for the L-galactono-1,4-lactone substrate; value reported by Östergaard et al., 1997; cited from earlier work.
Chain of plant L-galactono-1,4-lactone dehydrogenase (O47881 92-600): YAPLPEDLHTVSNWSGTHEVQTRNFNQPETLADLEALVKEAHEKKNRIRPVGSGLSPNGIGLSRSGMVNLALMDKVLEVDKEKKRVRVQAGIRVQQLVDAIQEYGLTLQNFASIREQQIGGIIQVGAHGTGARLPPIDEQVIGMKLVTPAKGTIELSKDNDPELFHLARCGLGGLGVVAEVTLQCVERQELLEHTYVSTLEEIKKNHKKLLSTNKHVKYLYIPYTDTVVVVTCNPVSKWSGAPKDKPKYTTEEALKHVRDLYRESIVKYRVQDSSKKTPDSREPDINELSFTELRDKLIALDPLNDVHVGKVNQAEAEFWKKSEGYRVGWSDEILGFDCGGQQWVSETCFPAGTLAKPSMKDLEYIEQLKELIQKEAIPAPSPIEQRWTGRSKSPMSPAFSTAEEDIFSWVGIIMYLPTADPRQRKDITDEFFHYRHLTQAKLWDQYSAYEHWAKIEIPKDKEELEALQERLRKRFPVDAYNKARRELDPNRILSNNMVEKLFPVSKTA

Where two headings read alike, the source gives them in different places.

For the compound “recombinant GST-tagged L-gulono-1,4-lactone dehydrogenase of Mycobacterium tuberculosis (Mycobacterium tuberculosis H37Rv)”, in data set [1], the Km was 5 mM mM, the Vmax was 2.44µmol·h^-1mg^-1 µmol·h^-1mg^-1, the kcat was determined as 0.033 s^-1 s^-1 and the kcat/Km is reported as 0.0065 s^-1·mM^-1 s^-1·mM^-1.

As to `O=C[C@H](O)[C@@H](O)[C@H](O)CO` [D-xylose], the Enzyme specific activity in data set [2] was found to be 0 mU/mg ofprotein.

Regarding `O=C1O[C@H]([C@@H](O)CO)[C@H](O)[C@@H]1O` [L-gulono-1,4-lactone], the Enzyme specific activity in data set [2] is 66.7 mU/mg ofprotein.

For the compound `[Ca+2].[Cl-].[Cl-]` [CaCl2], the Relative activity in data set [2] (effector 1 mM) is listed as 91 % of control.

Regarding `[Cl][Mn][Cl]` [MnCl2], the Relative activity in data set [2] (effector 1 mM) is 79 % of control.

In the case of `[Cl][Cu][Cl]` [CuCl2], the Relative activity in data set [2] (effector 1 mM) is 0 % of control. The “effect on the enzyme activity (in words)” value in data set [2] (effectors, EDTA 1 mM) is given as “Inhibition”.

Regarding `[Cl-].[Cl-].[Zn+2]` [ZnCl2], the Relative activity in data set [2] (effector 1 mM) is given as 0 % of control. Further, the “effect on the enzyme activity (in words)” value in data set [2] (effectors, EDTA 1 mM) is recorded as “Inhibition”.

Turning to `O=C(O)CN(CCN(CC(=O)O)CC(=O)O)CC(=O)O` [EDTA], in data set [2], the Relative activity is recorded as 0 % of control and the “effect on the enzyme activity (in words)” value is “complete inhibition”.

As to `O=C[C@@H](O)[C@H](O)[C@H](O)CO` [D-arabinose], in data set [2], the Enzyme specific activity amounted to 0 mU/mg ofprotein.

Take `[Cl-].[Cl-].[Mg+2]` [MgCl2]: the Relative activity in data set [2] (effector 1 mM) is given as 98 % of control.

As to `CCN1C(=O)C=CC1=O` [N-ethylmaleimide], the Relative activity in data set [2] (effector 1 mM) is 0 % of control. In addition, the “effect on the enzyme activity (in words)” value in data set [2] (effectors, EDTA 1 mM) was “Inhibition”.

Regarding `O=C[C@H](O)[C@@H](O)[C@H](O)[C@H](O)C(=O)O` [D-glucuronic acid], in data set [2], the Enzyme specific activity is on record as 0 mU/mg ofprotein.

As to `O=C[C@H](O)[C@H]1OC(=O)[C@@H](O)[C@H]1O` [D-glucurono-3,6-lactone], the Enzyme specific activity in data set [2] came out at 0 mU/mg ofprotein.

As for `Cc1cc2nc3c(=O)[nH]c(=O)nc-3n(C[C@H](O)[C@H](O)[C@H](O)COP(=O)(O)OP(=O)(O)OC[C@H]3O[C@@H](n4cnc5c(N)ncnc54)[C@H](O)[C@@H]3O)c2cc1C` [FAD], the Relative activity in data set [2] (effector 100 µM) was 94 % of control. In data set [2] (effectors, EDTA 1 mM), the “effect on the enzyme activity (in words)” value is recorded as “not affected”.

As for `O=C1O[C@H]([C@@H](O)CO)[C@@H](O)[C@@H]1O` [L-galactono-1,4-lactone], in data set [3], the Km was 3.3 mM. Also, the Enzyme specific activity in data set [2] was found to be 0 mU/mg ofprotein. The “activity towards substrate (in words)” value in data set [2] (substrate specificity) is given as “no activity”.
